According to patent US20090036448A1, “PYRIMIDINE DERIVATIVES AND METHODS OF TREATMENT RELATED TO THE USE THEREOF” (TAISHO PHARMECUTICAL CO., LTD., priority 2004, published 2009):

Each molecule was assayed against MCH receptor (Homo sapiens, UniProt Q99705) (assay: Receptor binding assay with Radiolabelled MCH Ligand). Conditions: class by percent of control at 10^-7 M or IC50.
Chain of MCH receptor (Q99705 whole entry): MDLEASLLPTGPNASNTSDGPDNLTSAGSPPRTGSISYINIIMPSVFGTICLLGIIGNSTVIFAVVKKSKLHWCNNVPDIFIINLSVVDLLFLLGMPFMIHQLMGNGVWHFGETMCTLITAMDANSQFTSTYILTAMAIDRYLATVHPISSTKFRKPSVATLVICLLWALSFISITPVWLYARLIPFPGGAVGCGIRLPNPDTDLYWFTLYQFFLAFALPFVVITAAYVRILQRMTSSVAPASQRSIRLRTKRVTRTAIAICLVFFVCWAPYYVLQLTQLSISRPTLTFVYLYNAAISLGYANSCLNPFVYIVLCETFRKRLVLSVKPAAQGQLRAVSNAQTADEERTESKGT
Design: expressed in transfected cells; host or cells: 293 cells (human kidney, ATCC), transient transfection; crude membranes
Procedure, shortened: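 Membranes from 293 cells transiently transfected with human MCH receptor competed test compounds against a radiolabelled MCH ligand in Tris-HCl pH 7.4 with MgCl2 and EDTA for 60–120 min at room temperature. Filtration and scintillation counting followed, with cold MCH defining nonspecific binding. IC50 came from logit-log plots of %B/B0, and Ki from the Cheng-Prusoff equation.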
In the case of `Cc1nc(N[C@H]2CC[C@@H](NC(=O)/C=C/c3ccccc3Cl)CC2)cc(N(C)C)n1` [compound 265], the class is reported as 3 (Class 3: The value of percent of control at 10^−7 M was more than 60% or the value of IC50 was more than 200 nM.). For `Cc1nc(N[C@H]2CC[C@@H](NC(=O)COc3ccc(C(C)(C)C)cc3)CC2)cc(N(C)C)n1` [compound 255], the class was 3 (Class 3: The value of percent of control at 10^−7 M was more than 60% or the value of IC50 was more than 200 nM.). For `Cc1nc(N[C@H]2CC[C@@H](NS(=O)(=O)/C=C/c3ccccc3)CC2)cc(N(C)C)n1` [compound 471], the class was 3 (Class 3: The value of percent of control at 10^−7 M was more than 60% or the value of IC50 was more than 200 nM.). `Cc1nc(N[C@H]2CC[C@@H](NC(=O)C3c4ccccc4Oc4ccccc43)CC2)cc(N(C)C)n1` [compound 327, N-(cis-4-{[6-(dimethylamino)-2-methylpyrimidin-4-yl]amino}cyclohexyl)-9H-xanthene-9-carboxamide] was tested, and the class was 3 (Class 3: The value of percent of control at 10^−7 M was more than 60% or the value of IC50 was more than 200 nM.). For `Cc1nc(N[C@H]2CC[C@@H](NCc3ccco3)CC2)cc(N(C)C)n1` [compound 373], the class was 3 (Class 3: The value of percent of control at 10^−7 M was more than 60% or the value of IC50 was more than 200 nM.). In the case of `Cc1nc(N[C@H]2CC[C@@H](NC(=S)Nc3c(F)cc(Br)cc3Br)CC2)cc(N(C)C)n1` [compound 448], the class is reported as 3 (Class 3: The value of percent of control at 10^−7 M was more than 60% or the value of IC50 was more than 200 nM.). For `Cc1nc(N[C@H]2CC[C@@H](NCc3ccc(Cl)cc3)CC2)cc(N(C)C)n1` [compound 360], the class was 3 (Class 3: The value of percent of control at 10^−7 M was more than 60% or the value of IC50 was more than 200 nM.). In the case of `Cc1nc(N[C@H]2CC[C@@H](NC(=O)Nc3c(C)noc3-c3ccccc3)CC2)cc(N(C)C)n1` [compound 433], the class is reported as 3 (Class 3: The value of percent of control at 10^−7 M was more than 60% or the value of IC50 was more than 200 nM.). In the case of `Cc1nc(N[C@H]2CC[C@@H](NS(=O)(=O)c3cccc4c(N(C)C)cccc34)CC2)cc(N(C)C)n1` [compound 490], the class is reported as 3 (Class 3: The value of percent of control at 10^−7 M was more than 60% or the value of IC50 was more than 200 nM.). For `Cc1nc(N[C@H]2CC[C@@H](NC[C@H](Cc3ccccc3)NS(=O)(=O)c3cccc4ccccc34)CC2)cc(N(C)C)n1` [compound 404], the class was 3 (Class 3: The value of percent of control at 10^−7 M was more than 60% or the value of IC50 was more than 200 nM.). For `COc1ccc(CCN[C@H]2CC[C@@H](Nc3cc(N(C)C)nc(C)n3)CC2)cc1OC` [compound 390], the class was 3 (Class 3: The value of percent of control at 10^−7 M was more than 60% or the value of IC50 was more than 200 nM.). `COc1ccc(CCCC(=O)N[C@H]2CC[C@@H](Nc3cc(N(C)C)nc(C)n3)CC2)cc1OC` [compound 340] was tested, and the class was 3 (Class 3: The value of percent of control at 10^−7 M was more than 60% or the value of IC50 was more than 200 nM.). In the case of `Cc1nc(N[C@H]2CC[C@@H](NS(=O)(=O)c3cccc4ccccc34)CC2)cc(N(C)C)n1` [compound 505], the class is reported as 3 (Class 3: The value of percent of control at 10^−7 M was more than 60% or the value of IC50 was more than 200 nM.). For `Cc1nc(N[C@H]2CC[C@@H](NC(=O)c3ccc(S(C)(=O)=O)cc3)CC2)cc(N(C)C)n1` [compound 343], the class was 3 (Class 3: The value of percent of control at 10^−7 M was more than 60% or the value of IC50 was more than 200 nM.). In the case of `Cc1nc(N[C@H]2CC[C@@H](NC(=O)c3ccc4c(c3)C(=O)c3ccccc3-4)CC2)cc(N(C)C)n1` [compound 324], the class is reported as 3 (Class 3: The value of percent of control at 10^−7 M was more than 60% or the value of IC50 was more than 200 nM.). With `Cc1nc(N[C@H]2CC[C@@H](NCCc3ccc(Cl)cc3)CC2)cc(N(C)C)n1` [compound 364] the class was 3 (Class 3: The value of percent of control at 10^−7 M was more than 60% or the value of IC50 was more than 200 nM.). For `Cc1nc(N[C@H]2CC[C@@H](NS(=O)(=O)CCc3cccc4ccccc34)CC2)cc(N(C)C)n1` [compound 477], the class was 3 (Class 3: The value of percent of control at 10^−7 M was more than 60% or the value of IC50 was more than 200 nM.). `Cc1nc(N[C@H]2CC[C@@H](NCc3cnn(-c4ccc([N+](=O)[O-])cc4)c3C(F)(F)F)CC2)cc(N(C)C)n1` [compound 380] was tested, and the class was 3 (Class 3: The value of percent of control at 10^−7 M was more than 60% or the value of IC50 was more than 200 nM.). `Cc1nc(N[C@H]2CC[C@@H](NC(=O)CCCc3ccccc3)CC2)cc(N(C)C)n1` [compound 337] was tested, and the class was 3 (Class 3: The value of percent of control at 10^−7 M was more than 60% or the value of IC50 was more than 200 nM.). `Cc1nc(N[C@H]2CC[C@@H](NCC3CCCCC3)CC2)cc(N(C)C)n1` [compound 363] was tested, and the class was 3 (Class 3: The value of percent of control at 10^−7 M was more than 60% or the value of IC50 was more than 200 nM.). For `Cc1nc(N[C@H]2CC[C@@H](NS(=O)(=O)c3ccccc3OC(F)(F)F)CC2)cc(N(C)C)n1` [compound 491], the class was 3 (Class 3: The value of percent of control at 10^−7 M was more than 60% or the value of IC50 was more than 200 nM.). In the case of `Cc1nc(N[C@H]2CC[C@@H](NCC(C)(C)Oc3ccc(Cl)cc3)CC2)cc(N(C)C)n1` [compound 408], the class is reported as 3 (Class 3: The value of percent of control at 10^−7 M was more than 60% or the value of IC50 was more than 200 nM.). In the case of `Cc1nc(N[C@H]2CC[C@@H](NC(=O)c3ccc(F)c(Cl)c3)CC2)cc(N(C)C)n1` [compound 256, 3-chloro-N-(cis-4-{[6-(dimethylamino)-2-methylpyrimidin-4-yl]amino}cyclohexyl)-4-fluorobenzamide], the class is reported as 1 (Class 1: The value of percent of control at 10^−7 M was less than 40% or the value of IC50 was less than 50 nM.). With `Cc1nc(N[C@H]2CC[C@@H](NCC3CCCC3)CC2)cc(N(C)C)n1` [compound 398] the class was 3 (Class 3: The value of percent of control at 10^−7 M was more than 60% or the value of IC50 was more than 200 nM.). With `Cc1nc(N[C@H]2CC[C@@H](NS(=O)(=O)c3ccc(Br)cc3OC(F)(F)F)CC2)cc(N(C)C)n1` [compound 501] the class was 3 (Class 3: The value of percent of control at 10^−7 M was more than 60% or the value of IC50 was more than 200 nM.). In the case of `Cc1nc(N[C@H]2CC[C@@H](NC(=O)C3CC(=O)c4ccccc43)CC2)cc(N(C)C)n1` (relative stereo) [compound 299], the class is reported as 3 (Class 3: The value of percent of control at 10^−7 M was more than 60% or the value of IC50 was more than 200 nM.). For `Cc1nc(N[C@H]2CC[C@@H](NC(=O)CCCc3ccc([N+](=O)[O-])cc3)CC2)cc(N(C)C)n1` [compound 298], the class was 3 (Class 3: The value of percent of control at 10^−7 M was more than 60% or the value of IC50 was more than 200 nM.). For `Cc1nc(N[C@H]2CC[C@@H](NC(=O)c3ccc4cc5ccccc5cc4c3)CC2)cc(N(C)C)n1` [compound 333], the class was 3 (Class 3: The value of percent of control at 10^−7 M was more than 60% or the value of IC50 was more than 200 nM.). In the case of `Cc1nc(N[C@H]2CC[C@@H](NC(=O)CNc3ccccc3)CC2)cc(N(C)C)n1` [compound 303], the class is reported as 3 (Class 3: The value of percent of control at 10^−7 M was more than 60% or the value of IC50 was more than 200 nM.). With `Cc1nc(N[C@H]2CC[C@@H](NC(=O)c3ccc(C#N)cc3)CC2)cc(N(C)C)n1` [compound 259] the class was 3 (Class 3: The value of percent of control at 10^−7 M was more than 60% or the value of IC50 was more than 200 nM.). In the case of `Cc1nc(N[C@H]2CC[C@@H](NC(=O)[C@@H](C)c3cccc(C(=O)c4ccccc4)c3)CC2)cc(N(C)C)n1` [compound 309], the class is reported as 3 (Class 3: The value of percent of control at 10^−7 M was more than 60% or the value of IC50 was more than 200 nM.). `Cc1nc(N[C@H]2CC[C@@H](NC(=S)Nc3ccc(C#N)cc3)CC2)cc(N(C)C)n1` [compound 450] was tested, and the class was 3 (Class 3: The value of percent of control at 10^−7 M was more than 60% or the value of IC50 was more than 200 nM.). `COc1ccc(C(=O)N[C@H]2CC[C@@H](Nc3cc(N(C)C)nc(C)n3)CC2)cc1OC` [compound 219] was tested, and the class was 3 (Class 3: The value of percent of control at 10^−7 M was more than 60% or the value of IC50 was more than 200 nM.). For `Cc1nc(N[C@H]2CC[C@@H](NC(=S)Nc3ccc(I)cc3)CC2)cc(N(C)C)n1` [compound 449], the class was 3 (Class 3: The value of percent of control at 10^−7 M was more than 60% or the value of IC50 was more than 200 nM.). For `COc1ccc(NC(=O)N[C@H]2CC[C@@H](Nc3cc(N(C)C)nc(C)n3)CC2)cc1OC1CCCC1` [compound 427], the class was 3 (Class 3: The value of percent of control at 10^−7 M was more than 60% or the value of IC50 was more than 200 nM.). For `Cc1nc(N[C@H]2CC[C@@H](NC(=O)Cc3csc4ccccc34)CC2)cc(N(C)C)n1` [compound 338], the class was 3 (Class 3: The value of percent of control at 10^−7 M was more than 60% or the value of IC50 was more than 200 nM.). With `Cc1nc(N[C@H]2CC[C@@H](NCc3c(-c4c(F)cccc4Cl)noc3C)CC2)cc(N(C)C)n1` [compound 366] the class was 3 (Class 3: The value of percent of control at 10^−7 M was more than 60% or the value of IC50 was more than 200 nM.). `CCC(C)(C)c1ccc(S(=O)(=O)N[C@H]2CC[C@@H](Nc3cc(N(C)C)nc(C)n3)CC2)cc1` [compound 488] was tested, and the class was 3 (Class 3: The value of percent of control at 10^−7 M was more than 60% or the value of IC50 was more than 200 nM.). With `Cc1nc(N[C@H]2CC[C@@H](NCCc3ccccc3Br)CC2)cc(N(C)C)n1` [compound 406] the class was 3 (Class 3: The value of percent of control at 10^−7 M was more than 60% or the value of IC50 was more than 200 nM.). `Cc1nc(N[C@H]2CC[C@@H](NC(=O)COc3ccccc3)CC2)cc(N(C)C)n1` [compound 234] was tested, and the class was 3 (Class 3: The value of percent of control at 10^−7 M was more than 60% or the value of IC50 was more than 200 nM.).
